Read-outs that look alike come from different tables or passages of the source.
Columns and labels:
[1] = biological target: high affinity nicotinic receptors; experiment: Inhibition of L-[3H]nicotine binding to mouse brain membrane preparations; design: species or system Mice (DBA strain); details: mouse brain membranes, 10 nM L-[3H]nicotine, 2 hr at 4° C.; Ki calculated from IC50 by Cheng method; read-out: Ki (concentration of compound which inhibits 50 percent of L-[3H]nicotine binding)
Procedure: Mice (DBA strain) were maintained on a 12 hour light/dark cycle and were allowed free access to water and food supplied by Wayne Lab Blox, Madison, Wis. Animals used in the present studies were 60 to 90 days of age and weighed 20 to 25 g. Brain membrane preparations were obtained from pooled brain tissue of both males and females.
Mice were killed by cervical dislocation. Brains were removed and placed on an ice-cold platform. The cerebellum was removed and the remaining tissue was placed in 10 volumes (weight:volume) of ice-cold buffer (Krebs-RingersHEPES:NaCl, 118 mM; KCl, 4.8 mM; CaCl2, 2.5 mM; MgSO4, 1.2 mM; HEPES, 20 mM; pH to 7.5 with NaOH) and homogenized with a glass-Teflon tissue grinder. The resulting homogenate was centrifuged at 18000×g for 20 min. and the resulting pellet was resuspended in 20 volumes of water. After 60 min. incubation at 4° C., a new pellet was collected by centrifugation at 18000×g for 20 min. After resuspension in 10 volumes of buffer, a new final pellet was again collected by centrifugation at 18000×g for 20 min. Prior to each centrifugation step, the suspension was incubated at 37° C. for 5 min. to promote hydrolysis of endogenous acetylcholine. […] Protein was determined by the method of Lowry, et al., J. Biol. Chem., Vol. 193, pp. 265-275 (1951), using bovine serum albumin as the standard.
The binding of L-[^3 H]nicotine was measured using a modification of the method of Romano, et al., Science, Vol. 210, pp. 647-650 (1980) as described previously by Marks, et al., Mol. Pharmacol., Vol. 30, pp. 427-436 (1986). The binding of L-[^3 H]nicotine was measured using a 2 hr. incubation at 4° C. […] Nonspecific binding was determined by inclusion of 10 μM nonradioactive nicotine in the incubations. The inhibition of L-[^3 H]nicotine binding by test compounds was determined by including one of eight different concentrations of the test compound in the incubation. […] Inhibition constants (Ki values) were calculated from the IC50 values using the method of Cheng, et al., Biochem. Pharmacol., Vol. 22, pp. 3099-3108 (1973). […]

[2] = test system: synaptosomes from the striatal area of rat brain; experiment: [3H]-dopamine release from rat striatal synaptosomes; assay type: cell-based, Sprague-Dawley rats; details: read-out: Dopamine Release (percent release relative to (S)-(-)-nicotine)
Procedure: Dopamine release was measured by preparing synaptosomes from the striatal area of rat brain obtained from Sprague-Dawley rats generally according to the procedures set forth by Nagy, et al., J. Neurochem., Vol. 43, pp. 1114-1123 (1984). Striata from 4 rats were homogenized in 2 ml of 0.32M sucrose buffered with 5 mM HEPES (pH 7.5), using a glass-teflon tissue grinder. The homogenate was diluted to 5 ml with additional homogenization solution and centrifuged at 1000×g for 10 min. This procedure was repeated on the new pellet and the resulting supernatant was centrifuged at 12,000×g for 20 min. A 3 layer discontinuous Percoll gradient consisting of 16 percent, 10 percent and 7.5 percent Percoll in HEPES-buffered sucrose was made with the final pellet dispersed in the top layer. After centrifugation at 15,000×g for 20 min., the synaptosomes were recovered above the 16 percent layer with a pasteur pipette, diluted with 8 ml of perfusion buffer (128 mM NaCl, 2.4 mM KCl, 3.2 mM CaCl2, 1.2 mM KH2 PO4, 1.2 mM MgSO4, 25 mM HEPES pH 7.4, 10 mM dextrose, 1 mM ascorbate, 0.01 mM pargyline), and centrifuged at 15,000×g for 20 min. The new pellet was collected and re-suspended in perfusion buffer. The synaptosome suspension was incubated for 10 min. at 37° C. Then [^3 H]-dopamine (Amersham, 40-60 Ci/mmol) was added to the suspension to give a final concentration of 0.1 μM in suspension, and the suspension was incubated for another 5 min. Using this method, 30 to 90 percent of the dopamine was taken up into the synaptosomes, as determined by scintillation counting following filtration through glass fiber filters soaked with 0.5 percent polyethyleneimine. A continuous perfusion system was used to monitor release following exposure to each ligand. The ligands are named in Table I. Synaptosomes were loaded onto glass fiber filters (Gelman type A/E). Perfusion buffer was dripped onto the filters (0.2-0.3 ml/min.) and pulled through the filters with a peristaltic pump. Synaptosomes were washed with perfusion buffer for a minimum of 20 min. before addition of the ligand. After the addition of a 0.2 ml of a 20 μM solution of ligand, the perfusate was collected into scintillation vials at 1 min. intervals and the dopamine released was quantified by scintillation counting. Peaks of radioactivity released above background were summed and the average basal release during that time was subtracted from the total. Release was expressed as a percentage of release obtained with an equal concentration of (S)-(-)-nicotine.

[3] = 0.2 ml of 20 μM ligand solution, relative to equal concentration of (S)-(-)-nicotine

## C1=CCC(c2cccnc2)NC1 (racemic) [anatabine]
[1]
  Ki: 240 nM
[2]; [3]
  Emax at 20 µM: 70%

## c1cncc(C2=NCCC2)c1 [myosmine]
[1]
  Ki: 3700 nM
[2]; [3]
  Emax at 20 µM: 10%

## Fc1cncc(C2=NCCCC2)c1 [5-fluoroanabaseine]
[2]; [3]
  Emax at 20 µM: 50%

## CN1CCCCC1c1cccnc1 (stereo not shown) [methyl anabasine]
[1]
  Ki: 450 nM
[2]
  Emax at 20 µM: 5%

From patent US5276043A, “Method for treatment of neurodegenerative diseases” (priority 1993, dated 1994)
